Holding throughout (assay type): in vivo, Oryza sativa
In one experiment the test system is WT seeds and seedlings. Nature of the experiment: Germination and growth of WT seeds in galactose/mannose containing media. An excerpt:
(§1) The altered expression of the Oslrk1 by different sugars described above led us to study the response of the mutant to these monosaccharides and sucrose. The WT and the mutant seeds were germinated and grown in Gal, Man, Glu, Fm along with Suc at different concentrations (ranging from 0.1% to 1%) and Suc alone containing medium as a control. The following parameters were taken into account during observation: the shoot length, the number and the length of adventitious roots and the germination rate. […] Out of these three sugars tested, Man was selected as an example as its inhibitory effect was similar in seeds and seedlings of WT and mutant as shown in FIGS. 10A and B. The seed germination was severely affected by Man.
(§2) At 1.0% of the Gal, the shoot length decreased by half in the mutant, whereas only by 15% in the WT seedlings. […] Apart from this, the germination rate of the WT seeds dropped to 85% whereas in the mutant it dropped to 30%.
(§3) Germination of WT and mutant seeds in galactose/mannose containing media. WT and mutant seeds were germinated separately on MS medium containing 0.8% agar and 1% sucrose. In addition, D(+)galactose/D(+/−)mannose was added in different concentrations (0.1, 0.2, 0.5, and 1.0%) along with a control (MS with 1% of sucrose). At 14 days after germination, the observations for adventitious root number and length (cm), shoot length (cm) and germination rate (%) were recorded.

Experiment [1] concerns Oslrk1 mutant seeds and seedlings. Description: Germination and growth of Oslrk1 mutant seeds in galactose/mannose containing media. Particulars: for behavior of the mutant compared with the WT upon treatment: sugar 0.1% to 1% along with Suc.
Description: as §1, §2, §3

The next experiment concerns Oslrk11. Nature of the experiment: RT-PCR of Oslrks in treated 2 week-old seedlings. Particulars: treated vs control. How it is done:
(§4) RT-PCRs were carried out on RNA samples isolated from 2 week-old seedlings treated with various sugar (FIG. 13), hormone (FIG. 14), and abiotic stresses (FIG. 15) using primers designated to either 3′ or 5′ Untranslated Regions (UTRs) of the 15 Oslrks found in Table 2. For each Oslrk two lanes in the gel are found, the first lane is the control and the second one treatment samples.
(§5) Table 3 provides a summary of all the above referenced data on the Oslrks, showing the RT-PCR results of various treatments, including sugar, hormone and abiotic stress and northern blot results on various tissues of rice plant grown in normal conditions, and the ESTs, or cDNAs availability in the database. In the table, “I” represents induced expression and “R” represents repressed expression.

The next experiment has as its system Oslrk4. Description: RT-PCR of Oslrks in treated 2 week-old seedlings. The following applies: treated vs control. How it is done: as §4, §5
A further experiment concerns Oslrk5. Description: RT-PCR of Oslrks in treated 2 week-old seedlings. The following applies: treated vs control. How it is done: as §4, §5
For another experiment, the system named is Oslrk8. Description: RT-PCR of Oslrks in treated 2 week-old seedlings. Particulars: treated vs control. On the procedure: as §4, §5
Experiment [2] deals with Oslrk1 gene. Nature of the experiment: Northern-blot of Oslrk1 transcript in WT seedlings treated with hormones and SA. The following applies: 24 hours, WT seedlings, 3' UTR probe, vs untreated. An excerpt: Differential Regulation of Oslrk1 Gene Expression by Hormones. Receptor-like kinases were postulated to be involved in signal transduction events as they perceive a signal via a ligand-binding extracellular domain and transmit it through the serine/threonine kinase domain into the cytosol (Shiu and Bleecker, 2001). In order to know possible factors influencing the Oslrk1 gene regulation, we analyzed promoter of the Oslrk1 (1.5 kb) for the presence of cis-acting elements using the program PlantCARE (Lescot et al., 2002). Three TGAGC motifs observed in MeJA inducible genes were found in promoter of the Oslrk1 at the positions −186, −657 and −1190. Apart from these, three GA3 inducible motifs (P-box-CCTTxt) −101, −206 and −740 bp upstream of the Oslrk1 ORF were located. In addition, five salicylic acid inducible motifs (TCA-elementcAGAAa/ga) at the positions of −321, −601, −604, −855 and −1135 were detected. The presence of MeJA, GA and SA responsive cis-elements in the Oslrk1 promoter indicated possible regulatory roles of these factors. The promoter analysis led us to study the effect of different hormones and compounds on the Oslrk1 transcription. The WT seeds were germinated for […] then seedlings were transferred to the medium containing one of the following chemicals: […], MeJA, GA3 or ABA at concentration 100 uM and SA (5 mM) for 24 hours (Materials and Methods). The total RNA isolated from the untreated and treated seedlings were used in Northern-blot hybridization using 3′ UTR of the Oslrk1 gene as a probe. The treatment with GA3 and SA repressed the Oslrk1 gene expression (FIG. 8A) by 2.5 and 3.3 times respectively. […] In order to confirm the level of induction of the Oslrk1 gene by MeJA over time, in another series of experiments, a time course was performed after hormone treatment. Seven day old seedlings were sprayed with 100 uM of MeJA solution and they were harvested in 1, 2, 4, 6, 8, and 12 hours.
RNA Isolation and Northern-blot Analysis. RNA was isolated from different organs of rice plant at different developmental stages (roots of 10-14 days old seedlings and 2 months old plants, 10-14 days old seedlings, young and mature leaves, panicles at the flowering stage and calli) using a RNeasy Plant mini kit (Qiagen,). The RNA (10 ug) was fractionated on a 1.2% denaturating formaldehyde agarose gel and transferred onto a Hybond-N^+ membrane (Amersham). The bolts were hybridized with dogoxigenin (DIG)-labeled probes in DIG Easy Hyb solution (Roche) at 50° C. After hybridization, membranes were washed twice with 2×SSC and 0.1% SDS for 15 min, then twice with 0.5×SSC and 0.1% SDS for 15 min at 68° C. Detection was carried out according to manufacturer using DIG Wash and Block Buffer set and chemiluminescent substrate CDP Star™ (Roche). DIG-labelled probe corresponded to 3′UTR and lectin domain of Oslrk1 was used. For the control of RNA quantity, DIG-probe corresponding to rice Actin1 gene was synthesized using the following primers: […]
The RT-PCRs and Northern blots were repeated at least thrice and similar results were obtained. The quantification of the intensity of the hybridization signals was performed using Quantity ONE 4.5.0 software in Gel doc XR documentation system (Bio-Rad Laboratories, Inc., USA). The level of actual expression was calculated as a ratio of intensity of specific signal (Oslrk1 3′UTR probe) to the intensity of signal of positive control (rice Act1).
Treatment of WT Seedlings with Hormones and Sugars. Two week old WT seedlings were transferred to MS medium containing 100 μM of different hormones, such as Indole 3-Acetic Acid (IAA), Abscisic acid (ABA), Methyl Jasmonate (MeJA), or Gibbrellic Acid (GA3) and 5 mM of Salicylic Acid (SA), and were grown for 24 hours under normal day/light conditions. Total RNA was extracted from root of the seedlings and whole seedlings. […]

Another experiment concerns WT seedlings. Nature of the experiment: Growth of WT seedlings in MeJA or GA3 containing medium. The following applies: GA3 10 uM, two weeks in MS agar. How it is done:
(§6) In order to study the effect of phytohormones on the Oslrk1 mutant, seeds were grown in medium containing different concentrations of either MeJA ([…]) (FIG. 9A) or GA3 (0.5, 1, 5 and 10 μm) (data not shown) along with WT as a control The number and length of adventitious roots, number of lateral roots and shoot length were measured. […] In the WT seedlings the number of the lateral roots was increased at 5 uM and decreased by at 10 uM.
(§7) The adventitious root length of WT increased by 50% at 10 uM concentration of GA3, but it was not altered in the mutant (data not shown).
(§8) Plant Growth Conditions. Surface sterilized rice seeds were germinated and grown in cell culture containers (Phytatray II Sigma cell culture, USA) on 0.8% agar MS medium (Murashige and Skoog medium, Sigma., St. Louis Mo., USA) containing 1% of Suc for 2 weeks under 16/8 hours photoperiod. All chemicals used for the various treatments were purchased from Sigma.
(§9) Growth of WT and Mutant Seedlings in MeJA Containing Medium WT and mutant seeds were germinated and grown in MS medium (1% Suc) containing different concentrations of MeJA (1 μM, 5 μM, and 10 μM) for two weeks. No MeJA was added in the control. The number and length (cm) of adventitious roots as well as the number of lateral roots were measured.

A further experiment relates to Oslrk1 mutant seedlings. Description: Growth of Oslrk1 mutant seedlings in MeJA or GA3 containing medium. Particulars: GA3 10 uM, two weeks in MS agar. How it is done:
as §6, §7, §8, §9

Experiment [3] has as its system Oslrk1 gene. Description: Northern-blot of Oslrk1 transcript in WT seedlings treated with sugars. The following applies: sugars 175 mM, 48 hours, Mannitol as osmotic control. On the procedure: Lectins are known as carbohydrate-binding proteins that specifically recognize diverse sugar structures (Vijayan and Chandra, 1999). […] Five different sugars: glucose (Glu), sucrose (Suc), fructose (Fm), Gal and Man were used for this study along with Mannitol as an osmotic control (Methods). Northern-blot hybridizations were carried out on the total RNA isolated from treated seedlings.
RNA Isolation and Northern-blot Analysis. RNA was isolated from different organs of rice plant at different developmental stages (roots of 10-14 days old seedlings and 2 months old plants, 10-14 days old seedlings, young and mature leaves, panicles at the flowering stage and calli) using a RNeasy Plant mini kit (Qiagen,). […] For the control of RNA quantity, DIG-probe corresponding to rice Actin1 gene was synthesized using the following primers: […]
The RT-PCRs and Northern blots were repeated at least thrice and similar results were obtained. The quantification of the intensity of the hybridization signals was performed using Quantity ONE 4.5.0 software in Gel doc XR documentation system (Bio-Rad Laboratories, Inc., USA). The level of actual expression was calculated as a ratio of intensity of specific signal (Oslrk1 3′UTR probe) to the intensity of signal of positive control (rice Act1). […]

The subject of another experiment is Oslrk10. Nature of the experiment: RT-PCR of Oslrks in treated 2 week-old seedlings. Particulars: Rt, treated vs control. How it is done:
as §4, §5

The next experiment concerns Oslrk2. Description: RT-PCR of Oslrks in treated 2 week-old seedlings. Particulars: treated vs control. On the procedure:
as §4, §5

With `O=C[C@@H](O)[C@@H](O)[C@H](O)[C@H](O)CO` (racemic) [Man, mannose], the “effect on any parameters tested (shoot length, number and length of adventitious roots, germination rate)” value with WT seeds and seedlings (mannose 0.1%) is reported as “No obvious effect”; in [1] (Oslrk1 mutant, mannose 0.1%) it was “No obvious effect”. For the same compound, the seed germination rate in the experiment on WT seeds and seedlings (mannose 0.2%) is recorded as 35%; in experiment [1] (Oslrk1 mutant, mannose 0.2%), 35%. Also, the seed germination entry in the experiment on WT seeds and seedlings (mannose 0.5%) is “did not germinate”; in experiment [1] (Oslrk1 mutant, mannose 0.5%), “did not germinate”. In experiment [1], the “behavior of the mutant compared with the WT upon treatment” value is “No significant differences”. The “Oslrk11 expression by RT-PCR, Rt” value in the experiment on Oslrk11 was “I”. Besides, the “Oslrk4 expression by RT-PCR, Rt” value in the experiment on Oslrk4 is “I”. Moreover, the “Oslrk5 expression by RT-PCR, Rt” value with Oslrk5 is “I”. In the experiment with Oslrk5, the “Oslrk5 expression by RT-PCR, Sh” value is given as “R”. In addition, the “Oslrk8 expression by RT-PCR, Rt” value with Oslrk8 was “I”.

Consider `O=C(CO)[C@@H](O)[C@H](O)[C@H](O)CO` [Fm, fructose], for which the “behavior of the mutant compared with the WT upon treatment” value in experiment [1] was “No significant differences”.

Turning to `C=C1C[C@]23C[C@@]1(O)CC[C@H]2[C@@]12C=C[C@H](O)[C@@](C)(C(=O)O1)[C@H]2[C@@H]3C(=O)O` [GA3, Gibbrellic Acid], in the experiment with Oslrk1 gene [2] (100 uM), the “Oslrk1 gene expression repressed by” value is on record as 2.5 times. Further, in the experiment with WT seedlings, the “adventitious root length increased by” value amounted to 50%. The adventitious root length result in the experiment with Oslrk1 mutant seedlings was “not altered”. The “Oslrk11 expression by RT-PCR, Rt” value with Oslrk11 was “I”. Also, the “Oslrk11 expression by RT-PCR, Sh” value in the experiment with Oslrk11 (Sh) is listed as “R”. Besides, in the experiment on Oslrk4, the “Oslrk4 expression by RT-PCR, Rt” value is reported as “I”. For the same compound, in the experiment on Oslrk5, the “Oslrk5 expression by RT-PCR, Rt” value was “I”. The “Oslrk8 expression by RT-PCR, Rt” value with Oslrk8 is “I”.

Regarding `O=C[C@H](O)[C@@H](O)[C@H](O)[C@H](O)CO` [Glu, glucose], the “behavior of the mutant compared with the WT upon treatment” value in [1] is “No significant differences”. Also, the “Oslrk4 expression by RT-PCR, Rt” value with Oslrk4 is “I”. Moreover, the “Oslrk4 expression by RT-PCR, Sh” value in the experiment on Oslrk4 (Sh) is recorded as “R”. Besides, the “Oslrk8 expression by RT-PCR, Rt” value with Oslrk8 was “I”. In the experiment with Oslrk8 (Sh), the “Oslrk8 expression by RT-PCR, Sh” value is given as “R”.

With `OC[C@@H](O)[C@@H](O)[C@H](O)[C@H](O)CO` [Mannitol], in the experiment on Oslrk1 gene [3], the “Oslrk1 expression in response to sugars” value was “not altered”.

On to `O=C(O)c1ccccc1O` [SA, Salicylic Acid], for which the “Oslrk1 gene expression repressed by” value in the experiment with Oslrk1 gene [2] (5 mM) came out at 3.3 times. Further, the “Oslrk10 expression by RT-PCR, Rt” value in the experiment on Oslrk10 is “I”. In addition, in the experiment on Oslrk11, the “Oslrk11 expression by RT-PCR, Rt” value is “I”. Moreover, the “Oslrk4 expression by RT-PCR, Rt” value in the experiment on Oslrk4 is “I”. For the same compound, the “Oslrk5 expression by RT-PCR, Rt” value in the experiment with Oslrk5 is “I”. Also, the “Oslrk8 expression by RT-PCR, Rt” value in the experiment with Oslrk8 is “I”.

As for `OC[C@H]1O[C@@](CO)(O[C@H]2O[C@H](CO)[C@@H](O)[C@H](O)[C@H]2O)[C@@H](O)[C@@H]1O` [Suc, sucrose], the “Oslrk11 expression by RT-PCR, Rt” value with Oslrk11 is “I”. Further, the “Oslrk2 expression by RT-PCR, Rt” value with Oslrk2 (Rt) is on record as “I”. In addition, the “Oslrk2 expression by RT-PCR, Sh” value in the experiment with Oslrk2 (Sh) is given as “R”. Further, in the experiment with Oslrk5, the “Oslrk5 expression by RT-PCR, Rt” value is given as “I” and the “Oslrk5 expression by RT-PCR, Sh” value is given as “I”.

These data come from US20080271210A1, “Oryza Sativa Lectin-Like Receptor Kinase 1 (Oslrk1), a Gene Involved in Plant Development” (Temasek Life Sciences Laboratory National University of …, priority 2004, published 2008).
